The values that follow are results of earlier work, collected in patent publication US10130578B2, “Topical delivery of skin compositions having low pH” (Johnson & Johnson Consumer Inc., priority 2015, dated 2018).

Turning to Hyaluronic acid, the pKa was 2.9.
